The source of these data is patent US12115157B2, “3-phenoxyazetidin-1-yl-heteroaryl pyrrolidine derivatives and the use thereof as medicament” (Boehringer Ingelheim International GmbH, priority 2021, dated 2024).

Where only a bound is given, the exact number is not on record here.

The target in one data set is human GPR52 (Homo sapiens (Human), UniProt Q9Y2T5). Kind of data set: HTRF assay for direct cAMP measurement. The class given is cell-based. The settings on record: CHO-K1 cells stably expressing recombinant human GPR52, mean EC50. Here is the method: HTRF cAMP assays were performed using commercially available assay kits according to the manufacturer's instructions (cAMP Dynamic 2 Assay Kit; #62AM4PEJ, Cisbio Bioassays, Bedford, MA). An aliquot of CHO-K1 cells stably expressing recombinant human GPR52 was thawed and resuspended in cell buffer (1×PBS (w/o Ca^2+/Mg^2+)) at a density of 4×10^5 cells per mL. Test compounds were solubilized in DMSO to 10 mM stock solutions and serially diluted in DMSO using 6-fold dilutions to generate 8-point dose response curves. These serially diluted samples were then diluted 1:50 in compound dilution buffer (1×PBS (w/o Ca^2+/Mg^2+) containing 0.5 mM IBMX, 0.1% BSA) to achieve a 4× stock. The diluted compounds were transferred (5 μL per well) in duplicate to the 384-well assay plate (Optiplate #6007290, PerkinElmer, Waltham, MA). Both a positive (reference compound) and negative (non-stimulated vehicle) control was included in each assay run in column 23. The cell suspension was subsequently dispensed into the 384-well assay plates at 15 μL per well (6000 cells) such that the compound was diluted to 1×. […] After a one-hour incubation at room temperature, 10 μL of cAMP D2 reagent followed by 10 μL of cryptate reagent (provided in the Cisbio kit) was added to each well. Plates were then incubated at room temperature for one hour prior to reading. Time-resolved fluorescence measurements were collected on an EnVision® HTRF plate reader (PerkinElmer, Waltham, MA). Counts from the plate reader were fit to the cAMP standard curve included on each plate to determine the amount of cAMP in each test well. The % control was calculated based on the […]. Dose-response curves were generated from the cAMP data and analyzed using a nonlinear least squares curve-fitting program to obtain EC50 values.

A further data set deals with hERG channel (Homo sapiens (Human), UniProt Q12809). Kind of data set: hERG channel assay (whole-cell patch clamp). The format is cell-based. The settings on record: HEK293 cells stably transfected with hERG cDNA. From the text: hERG Channel inhibition of compounds of the present invention was investigated as follows:
HEK (human embryonic kidney) 293 cells were stably transfected with hERG cDNA. Cells determined for use in patch clamp experiments were cultivated without antibiotic.
Cells were superfused with a bath solution containing (mM): NaCl (137), KCl (4.0), MgCl2 (1.0), CaCl2(1.8), Glucose (10), HEPES (10), pH 7.4 with NaOH. Patch pipettes were made from borosilicate glass tubing using a pipette and filled with pipette solution containing (mM): K-aspartate (130), MgCl2(5.0), EGTA (5.0), K2ATP (4.0), HEPES (10.0), pH 7.2 with KOH. Resistance of the microelectrodes was typically in the range between 2 MΩ and 5 MΩ.
Membrane currents were recorded using an EPC-10 patch clamp amplifier (HEKA Electronics, Lambrecht, FRG) and PatchMaster software (HEKA). hERG-mediated membrane currents were recorded at typically 28° C., using the whole-cell configuration of the patch-clamp technique. Transfected HEK293 cells were clamped at a holding potential of −60 mV and hERG-mediated inactivating tail currents were elicited using a pulse pattern with fixed amplitudes (activation/inactivation: 40 mV for 2000 ms; recovery: 120 mV for 2 ms; ramp to 40 mV in 2 ms; inactivating tail current: 40 mV for 50 ms) repeated at 15 s intervals. During each inter-pulse interval 4 pulses scaled down by a factor of 0.2 were recorded for a P/n leak subtraction procedure. Rs compensation was employed up to a level that safely allows recording devoid of ringing. The remaining uncompensated Rs was recorded as well as actual temperature and holding current.
The concentrations of the test item were applied sequentially on each of the different cells investigated. A steady state level of baseline current was measured for at least 5 sweeps prior to the application of the first test article concentration. The test item was dissolved in DMSO to yield a stock solution of 1000-fold the highest final concentration. This stock was diluted further in DMSO to stock solutions of 1000-fold the remaining final concentrations. Final dilutions in extracellular buffer were prepared freshly from these stocks by a 1:1000 dilution step each before starting the experiments.
Peak current amplitudes were measured 3 ms after the ramp to +40 mV. For baseline and each concentration, the peak currents of the three last sweeps before application of the next concentration were averaged. Residual currents (I/I0) were calculated for each cell as the fraction of actual average peak current and average baseline peak current. Current inhibition was expressed as […]. Current inhibition for all cells was reported as mean ±SD. If possible, from mean current inhibition data the IC50 was estimated based on the Hill equation using a least squares procedure.

The next data set relates to human plasma proteins. Kind of data set: Human plasma protein binding assay (equilibrium dialysis). The class given is in vitro ADME. Particulars: 1 μM, 2 hours, 37° C. Here is the method: Equilibrium dialysis (ED) technique was used to determine the approximate in vitro fractional binding of test compounds to plasma proteins. Dianorm Teflon dialysis cells (micro 0.2) were used. Each dialysis cell consists of a donor and an acceptor chamber, separated by an ultrathin semipermeable membrane with a 5 kDa molecular weight cut-off. Stock solutions for each test compound were prepared in DMSO at 1 mM and serially diluted to obtain a final test concentration of 1 μM. The subsequent dialysis solutions were prepared in plasma (supplemented with NaEDTA as anticoagulant), and aliquots of 200 μL test compound dialysis solution in plasma were dispensed into the donor (plasma) chambers. Aliquots of 200 μL dialysis buffer (100 mM potassium phosphate, pH 7.4) were dispensed into the buffer (acceptor) chamber. Incubation was carried out for 2 hours under rotation at 37° C. for establishing equilibrium.
At the end of the dialysis period, aliquots obtained from donor and acceptor chambers, respectively, were transferred into reaction tubes, spiked with Internal Standard solution and processed for HPLC-MS/MS analysis. Analyte concentrations were quantified in aliquots of samples by HPLC-MS/MS against external calibration curves.
Percent bound was calculated using the formula: % bound=(plasma concentration−buffer concentration/plasma concentration)×100

A further data set relates to human hepatocytes. Kind of data set: Metabolic stability in human hepatocytes. The format is in vitro ADME. The settings on record: human hepatocyte suspension, 1 μM; predicted hepatic clearance as percentage of hepatic blood flow. Here is the method: The metabolic degradation of a test compound was assayed in a human hepatocyte suspension. After recovery from cryopreservation, human hepatocytes were diluted in Dulbecco's modified eagle medium (supplemented with 3.5 μg glucagon/500 mL, 2.5 mg insulin/500 mL, 3.75 mg hydrocortisone/500 mL, 5% human serum) to obtain a final cell density of 1.0×10^6 cells/mL or 4.0×10^6 cells/mL, depending on the metabolic turnover rate of the test compound.
Following a 30 minutes preincubation in a cell culture incubator (37° C., 10% CO2), test compound solution was spiked into the hepatocyte suspension, resulting in a final test compound concentration of 1 μM and a final DMSO concentration of 0.05% (v/v).
The cell suspension was incubated at 37° C. (cell culture incubator, horizontal shaker) and samples were removed from the incubation after 0, 0.5, 1, 2, 4 and 6 hours. Samples were quenched with acetonitrile (containing internal standard) and pelleted by centrifugation. The supernatant was transferred to a 96-deepwell plate, and prepared for analysis of decline of parent compound by HPLC-MS/MS.
The percentage of remaining test compound was calculated using the peak area ratio (test compound/internal standard) of each incubation time point relative to the time point 0 peak area ratio. The log-transformed data were plotted versus incubation time, and the absolute value of the slope obtained by linear regression analysis was used to estimate in vitro half-life (T1/2).
In vitro intrinsic clearance (CLint) was calculated from in vitro T1/2 and scaled to whole liver using a hepatocellularity of 120×10^6 cells/g liver, a human liver per body weight of 25.7 g liver/kg as well as in vitro incubation parameters, applying the following equation: CL_[…]_IN VIVO[mL/min/kg]=(CL_[…][μL/min/10^6 cells]×hepatocellularity[10^6 cells/g liver]×liver factor[g/kg body weight])/1000
Hepatic in vivo blood clearance (CL) was predicted according to the well-stirred liver model considering an average liver blood flow (QH) of 20.7 mL/min/kg: CL[mL/min/kg]=CL_[…]_IN VIVO[mL/min/kg]×hepatic blood flow[mL/min/kg]/(CL_[…]_IN VIVO[mL/min/kg]+hepatic blood flow[mL/min/kg])
Results were expressed as percentage of hepatic blood flow: QH[%]=CL[mL/min/kg]/hepatic blood flow[mL/min/kg])

Chain of hERG channel (Q12809 whole entry): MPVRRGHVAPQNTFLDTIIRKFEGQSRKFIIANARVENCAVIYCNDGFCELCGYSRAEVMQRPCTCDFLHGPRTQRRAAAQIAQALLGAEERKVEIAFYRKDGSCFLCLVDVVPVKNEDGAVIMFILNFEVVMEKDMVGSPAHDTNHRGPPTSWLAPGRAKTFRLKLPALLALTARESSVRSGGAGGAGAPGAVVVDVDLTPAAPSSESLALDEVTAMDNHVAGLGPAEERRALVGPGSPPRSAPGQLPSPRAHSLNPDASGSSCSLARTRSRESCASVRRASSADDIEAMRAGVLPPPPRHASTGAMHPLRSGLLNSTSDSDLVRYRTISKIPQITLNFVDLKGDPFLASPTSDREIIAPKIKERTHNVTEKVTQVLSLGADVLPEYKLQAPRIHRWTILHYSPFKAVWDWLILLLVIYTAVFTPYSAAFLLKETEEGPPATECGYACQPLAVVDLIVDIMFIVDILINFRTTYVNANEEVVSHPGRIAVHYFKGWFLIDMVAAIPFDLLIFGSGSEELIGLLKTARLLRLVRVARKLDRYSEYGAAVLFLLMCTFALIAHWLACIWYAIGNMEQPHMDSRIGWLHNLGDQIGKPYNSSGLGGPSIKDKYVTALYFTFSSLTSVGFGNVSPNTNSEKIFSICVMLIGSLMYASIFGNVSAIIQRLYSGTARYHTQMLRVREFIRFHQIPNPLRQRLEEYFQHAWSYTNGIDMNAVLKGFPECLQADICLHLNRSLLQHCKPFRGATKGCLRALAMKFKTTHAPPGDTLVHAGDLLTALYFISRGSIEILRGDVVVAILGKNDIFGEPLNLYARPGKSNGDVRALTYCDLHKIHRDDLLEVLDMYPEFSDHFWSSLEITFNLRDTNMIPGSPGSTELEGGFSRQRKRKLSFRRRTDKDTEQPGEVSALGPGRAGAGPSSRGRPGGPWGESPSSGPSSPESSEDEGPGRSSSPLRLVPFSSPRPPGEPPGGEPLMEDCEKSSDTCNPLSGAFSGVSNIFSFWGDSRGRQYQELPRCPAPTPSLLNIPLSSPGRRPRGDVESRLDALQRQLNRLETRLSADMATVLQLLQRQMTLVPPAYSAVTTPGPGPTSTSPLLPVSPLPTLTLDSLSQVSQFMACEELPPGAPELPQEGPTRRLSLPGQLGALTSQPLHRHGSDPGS
Chain of human GPR52 (Q9Y2T5 whole entry): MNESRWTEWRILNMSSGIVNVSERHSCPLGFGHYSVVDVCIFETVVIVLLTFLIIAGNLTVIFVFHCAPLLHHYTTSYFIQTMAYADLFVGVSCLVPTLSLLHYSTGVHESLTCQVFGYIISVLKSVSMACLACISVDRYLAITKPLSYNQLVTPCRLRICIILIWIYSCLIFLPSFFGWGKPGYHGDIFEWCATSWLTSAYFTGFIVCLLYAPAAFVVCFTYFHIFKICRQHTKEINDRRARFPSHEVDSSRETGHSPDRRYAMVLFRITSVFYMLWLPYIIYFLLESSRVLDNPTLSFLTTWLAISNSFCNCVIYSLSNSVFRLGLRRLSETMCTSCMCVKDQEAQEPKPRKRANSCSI

On to `CC(=O)N1CCC(NC(=O)c2nsnc2N2CC(Oc3ccc(F)c(F)c3)C2)C1` (single isomer, unassigned) [Example 16b], for which the EC50 on human GPR52 is 210 nM. The compound further came in with an IC50 against hERG channel of over 10000 nM.

With `CC(=O)N1CC(NC(=O)c2nccnc2N2CC(Oc3cc(F)cc(C(F)F)c3)C2)C(F)(F)C1` (stereo not shown) [Example 6], the EC50 on human GPR52 was 54 nM. Moreover, the “Hu PPB” value with human plasma proteins is given as 87.8 % bound. The “Human HepStab” value in the data set on human hepatocytes is given as 4.8 % QH. Moreover, the IC50 against hERG channel was over 10000 nM.

With `[2H]C([2H])([2H])C(=O)N1CC(NC(=O)c2nccnc2N2CC(Oc3ccc(F)c(F)c3)C2)C(F)(F)C1` (racemic) [Example 4], the EC50 on human GPR52 is 18 nM. In the data set on human plasma proteins, the “Hu PPB” value was 79.2 % bound. For the same compound, in the data set with human hepatocytes, the “Human HepStab” value is given as 8.5 % QH. The IC50 against hERG channel is over 10000 nM.

With `CC(=O)N1C[C@@H](NC(=O)c2nccnc2N2CC(Oc3cc(F)cc(F)c3)C2)C(F)(F)C1` [Example 10b], the 50% effective concentration (EC50) at human GPR52 came to 1330 nM.

Take `CS(=O)(=O)N1CC(NC(=O)c2nccnc2N2CC(Oc3cc(F)c(F)c(F)c3)C2)C(F)(F)C1` (racemic) [Example 9]: at human GPR52, the EC50 turned out to be 19 nM. In the data set on human plasma proteins, the “Hu PPB” value was found to be 93.4 % bound. Further, the “Human HepStab” value in the data set with human hepatocytes is given as 5.8 % QH. At hERG channel, this compound returned an IC50 of over 10000 nM.

On to `CC(=O)N1CC(NC(=O)c2nccnc2N2CC(Oc3ccc(F)c(Cl)c3)C2)C(F)(F)C1` (racemic) [Example 1], for which the EC50 at human GPR52 turned out to be 15 nM. Also, the “Hu PPB” value in the data set with human plasma proteins is 92.6 % bound. Further, the “Human HepStab” value in the data set on human hepatocytes is on record as 11.1 % QH. Moreover, the IC50 at hERG channel was over 10000 nM.

In the case of `CC(=O)N1CC(F)C(NC(=O)c2nsnc2N2CC(Oc3ccc(F)c(F)c3)C2)C1` (single isomer, unassigned) [Example 14a], on human GPR52, the EC50 was 1170 nM.

On to `CC(=O)N1CC[C@H](NC(=O)c2nsnc2N2CC(Oc3cc(F)cc(F)c3)C2)C1` [Example 15b], for which, at human GPR52, the EC50 is 168 nM.

As to `CCC(=O)N1CC(NC(=O)c2nccnc2N2CC(Oc3ccc(F)c(F)c3)C2)C(F)(F)C1` (stereo not shown) [Example 2], the EC50 on human GPR52 came out at 24 nM. Besides, in the data set on human plasma proteins, the “Hu PPB” value was determined as 89.9 % bound. The “Human HepStab” value with human hepatocytes is 21.3 % QH. At hERG channel, this compound came in with an IC50 of 6600 nM.

With `CC(=O)N1CCC(NC(=O)c2nsnc2N2CC(Oc3ccc(F)c(F)c3)C2)C1` (stereo not shown) [Example 16a], the EC50 on human GPR52 was determined as 11 nM. The “Hu PPB” value with human plasma proteins is listed as 86.2 % bound. Also, in the data set with human hepatocytes, the “Human HepStab” value is given as under 4.1 % QH. On hERG channel, this compound showed an IC50 of over 10000 nM.

Take `CC(=O)N1CC(F)C(NC(=O)c2nsnc2N2CC(Oc3ccc(F)c(F)c3)C2)C1` (single isomer, unassigned) [Example 14b]: the concentration for a half-maximal effect (EC50) at human GPR52 worked out at 11 nM. Further, the “Hu PPB” value in the data set with human plasma proteins worked out at 89.7 % bound. Further, on hERG channel, the IC50 is over 10000 nM.

For `CC(=O)N1CC(NC(=O)c2nccnc2N2CC(Oc3cc(F)cc(Cl)c3)C2)C(F)(F)C1` (racemic) [Example 5], the concentration for a half-maximal effect (EC50) at human GPR52 was 27 nM. For the same compound, in the data set with human plasma proteins, the “Hu PPB” value amounted to 93.2 % bound. Further, in the data set on human hepatocytes, the “Human HepStab” value is 17.0 % QH. In addition, at hERG channel, the IC50 was over 10000 nM.

Turning to `O=C(NC1CNCC1(F)F)c1nccnc1N1CC(Oc2cc(F)c(F)c(F)c2)C1` (racemic) [Intermediate H-3], the EC50 on human GPR52 is 378 nM. Further, the “Hu PPB” value in the data set on human plasma proteins amounted to 88.2 % bound. The “Human HepStab” value in the data set on human hepatocytes was 27.7 % QH.

Regarding `CC(=O)N1CC(F)C(NC(=O)c2nsnc2N2CC(Oc3ccc(F)c(F)c3)C2)C1` (stereo not shown) [Example 14b], in the data set on human hepatocytes, the “Human HepStab” value was under 4.1 % QH.

On to `CC(=O)N1CC(NC(=O)c2nccnc2N2CC(Oc3cc(F)cc(OC(F)F)c3)C2)C(F)(F)C1` (racemic) [Example 7], for which the concentration for a half-maximal effect (EC50) on human GPR52 turned out to be 102 nM. The “Human HepStab” value with human hepatocytes is 15.4 % QH.

For the compound `CC(=O)N1CC2(NC(=O)c3nsnc3N3CC(Oc4cc(F)c(F)c(F)c4)C3)CC1C2` [Example 12], the EC50 at human GPR52 is 24 nM. Further, the “Hu PPB” value with human plasma proteins is recorded as 88.5 % bound. Further, in the data set on human hepatocytes, the “Human HepStab” value was 5.0 % QH. Further, on hERG channel, the IC50 was over 10000 nM.

Broadly, the EC50 is the midpoint of the concentration-response curve. For orientation: IC50 means the concentration that gives 50% inhibition. Read a high IC50 as weaker potency in that assay.
